pIC50: −log10 of the molar value.
How the values were obtained:
Hs578T [1] = assay: Cell vitality assay (ATP assay, CellTiter-Glo); type: cell-based; settings: Homo sapiens, Hs-578T; HS578T cell line, 72 h; Table Ib; read-out: IC50 ATP-Assay HS578T after 72 h
Protocol: The CellTiter-Glo® Luminescent Cell Viability Assay (Promega Corporation. Madison, Wis., USA) is method a determining the number of viable cells in culture based on quantification of the ATP being present which is an indicator of metabolically active cells was used according to manufacturers protocol, In detail the assay was performed in a 96 well format were 1000 cells/well were incubated with indicated compound at concentration of 12.5 μM, 6.25 μM, 3.125 μM, 1.56 μM, 0.78 μM, 0.39 μM, 0.195 μM as well as DMSO control for 72 h in 100 μl cell culture medium. IC50 values were calculated as 50% of ATP amount compared to DMSO control.
Protocol for the CellTiter-Glo® Luminescent Cell Viability Assay • 1. Prepare opaque-walled multiwell plates with mammalian cells in culture medium, 100 μl per well for 96-well plates • 2. Prepare control wells containing medium without cells to obtain a value for background luminescence. • 3. Add the compound to be tested to experimental wells, and incubate according to culture protocol. • 4. Equilibrate the plate and its contents at room temperature for approximately 30 minutes. • 5. Add a volume of CellTiter-Glo® Reagent (Promega Corporation. Madison, Wis.) equal to the volume of cell culture medium present in each well. • 6. Mix contents for 2 minutes on an orbital shaker to induce cell lysis. • 7. Allow the plate to incubate at room temperature for 10 minutes to stabilize luminescent signal. • 8. Record luminescence on Microplate Luminometer LB96V (Berthold Tchnologies, Bad Wildbad, Germany). An integration time of 0.1 and 1 second per well

Hs578T [2] = assay: Wound healing migration assay; type: cell-based; settings: Homo sapiens, Hs-578T; HS578T cell line; Table Ib
Protocol: This method mimics cell migration during wound healing in vivo. The basic steps involve creating a “wound” in a cell monolayer, capturing the images at the beginning and at regular intervals during cell migration to close the wound, and comparing the images to quantify the migration rate of the cells. In detail, 150000 cell/24 well have been seeded and allowed to form a monolayer overnight. Subsequently a “wound” or “scratch” has been performed with a 1000 μl pipette tip. The STDV of wound size is normally below 10% at time point t0. The assay was stopped by fixation with 0.05% Crystal violet/20% methanol when control scratches were closed. The assay was terminated between 48 h and 72 h depending on the migration potential of the indicated cell line. The “wounds” were visualized with a Zeiss Axiovert S100 microscope (Carl Zeiss UK, Welwyn Garden City, UK). The tested compounds were used at 12.5 μM, 6.25, 3.125 μM and DMSO control. IC50 values have been calculated as 50% wound size in between t0 and t48 or t72.

Hs578T [3] = assay: Matrigel outgrowth assay/branching assay; type: cell-based; settings: Homo sapiens, Hs-578T; HS578T cell line; Table Ib; read-out: Total branching inhibition in Matrigel HS578T
Protocol: The Matrigel outgrowth assay is based on the ability of tumor cell to penetrate a solid gel of extracellular matrix proteins mimicking the metastasis formation in vivo. While cells with low invasive potential appear as roundish cell or cell cluster, cells with high invasive potential penetrate the Matrigel and form polymorphic structures. In detail 65 μl of Matrigel matrix (Matrigel™ Matrix, BD Biosciences, Bedford, Mass., USA) with a concentration of 3 mg/ml have been polymerized in 96 well plates for 1 h at 37° C. Subsequently 5000 cell/well were seeded into each well containing cell culture medium and indicated compound with concentrations of 3.125 μM, 1.56 μM and 0.78 μM as well as DMSO control. After 48 h, 72 h and 96 h images of cell were taken on an inverted microscope using a 5× objective (Zeiss Axiovert S100 microscope Carl Zeiss UK, Welwyn Garden City, UK). Only compound concentrations were total branching inhibition was evident were accounted as positive. Method was used as previously described, with some modifications (Thompson E W, et al. Association of increased basement membrane invasiveness with absence of estrogen receptor and expression of vimentin in human breast cancer cell lines. J Cell Physiol 1992; 150:534-44).

SMILES	pIC50 (Hs578T [2])	melting point [°C]	pIC50 (Hs578T [1])	pIC50 (Hs578T [3])
COc1ccc2nccc(Oc3ccc(NS(=O)(=O)c4c(F)cccc4F)cc3F)c2c1 [Example 200, 2,6-Difluoro-N-[3-fluoro-4-(6-methoxy-quinolin-4-yloxy)-phenyl]-benzenesulfonamide]	4.30 to 4.90	227 to 228	4.30 to 4.90	4.60 to 5.00
COc1ccc2nccc(Oc3ccc(NS(=O)(=O)c4ccc5ccccc5c4)cc3F)c2c1 [Example 205, Naphthalene-2-sulfonic acid [3-fluoro-4-(6-methoxy-quinolin-4-yloxy)-phenyl]-amide]	4.30 to 4.90	220 to 222	4.30 to 4.90	4.60 to 5.00
COc1cc2c(Oc3ccc(NS(=O)(=O)c4c(C)nn(C)c4C)cc3F)ccnc2cc1OCCCN1CCC(C)CC1 [Example 160, 1,3,5-Trimethyl-1H-pyrazole-4-sulfonic acid (3-fluoro-4-{6-methoxy-7-[3-(4-methyl-piperidin-1-yl)-propoxy]-quinolin-4-yloxy}-phenyl)-amide]	≥ 4.90	88 to 90	≥ 4.90	4.60 to 5.00
COc1cc2c(Oc3ccc(NS(=O)(=O)c4cnc(C)[nH]4)cc3F)ccnc2cc1OCCCN1CCCCC1 [Example 167, 2-Methyl-3H-imidazole-4-sulfonic acid {3-fluoro-4-[6-methoxy-7-(3-piperidin-1-yl-propoxy)-quinolin-4-yloxy]-phenyl}-amide]	4.30 to 4.90	160 to 163	4.30 to 4.90	4.60 to 5.00
COc1cc2c(Oc3cc(NS(=O)(=O)c4c(F)cccc4F)ccc3F)ccnc2cc1OCCCN1CCC(C)CC1 [Example 188, 2,6-Difluoro-N-(4-fluoro-3-{6-methoxy-7-[3-(4-methyl-piperidin-1-yl)-propoxy]-quinolin-4-yloxy}-phenyl)-benzenesulfonamide]	≥ 4.90	185 to 186	≥ 4.90	≥ 5.00
COc1cc2c(Oc3ccc(Cl)c(NS(=O)(=O)c4ccccc4OC(F)(F)F)c3)ccnc2cc1OCCCN1CCC(C)CC1 [Example 196, N-(2-Chloro-5-{6-methoxy-7-[3-(4-methyl-piperidin-1-yl)-propoxy]-quinolin-4-yloxy}-phenyl)-2-trifluoromethoxy-benzenesulfonamide]	4.30 to 4.90	123 to 126	4.30 to 4.90	4.60 to 5.00
COc1cc2c(Oc3cc(NS(=O)(=O)c4c(Cl)cccc4Cl)ccc3F)ccnc2cc1OCCCN1CCC(C)CC1 [Example 192, 2,6-Dichloro-N-(4-fluoro-3-{6-methoxy-7-[3-(4-methyl-piperidin-1-yl)-propoxy]-quinolin-4-yloxy}-phenyl)-benzenesulfonamide]	4.30 to 4.90	116 to 118	≥ 4.90	4.60 to 5.00
COc1cc2c(Oc3ccc(Cl)c(NS(=O)(=O)c4ccccc4C(F)(F)F)c3)ccnc2cc1OCCCN1CCC(C)CC1 [Example 195, N-(2-Chloro-5-{6-methoxy-7-[3-(4-methyl-piperidin-1-yl)-propoxy]-quinolin-4-yloxy}-phenyl)-2-trifluoromethyl-benzenesulfonamide]	4.30 to 4.90	179 to 181	4.30 to 4.90	4.60 to 5.00
COc1cc2c(Oc3ccc(NS(=O)(=O)c4ccn(C)n4)cc3F)ccnc2cc1OCCCN1CCCCC1C (centres unmarked) [Example 150, 1-Methyl-1H-pyrazole-3-sulfonic acid (3-fluoro-4-{6-methoxy-7-[3-(2-methyl-piperidin-1-yl)-propoxy]-quinolin-4-yloxy}-phenyl)-amide]	4.30 to 4.90	175 to 176	≥ 4.90	4.60 to 5.00
COc1cc2c(Oc3ccc(NS(=O)(=O)c4cc(F)ccc4F)cc3F)ccnc2cc1OCCCNC(=O)OC(C)(C)C [Example 121, (3-{4-[4-(2,5-Difluoro-benzenesulfonylamino)-2-fluoro-phenoxy]-6-methoxy-quinolin-7-yloxy}-propyl)-carbamic acid tert-butyl ester]	4.30 to 4.90	115 to 118	4.30 to 4.90	4.60 to 5.00

Further lines, with some results ahead:

pIC50 (Hs578T [2])	melting point [°C]	SMILES	pIC50 (Hs578T [1])	pIC50 (Hs578T [3])
4.30 to 4.90	87 to 90	CCn1cc(S(=O)(=O)Nc2cccc(Oc3ccnc4cc(OCCCN5CCN(C)CC5)c(OC)cc34)c2)cn1 [Example 140, 1-Ethyl-1H-pyrazole-4-sulfonic acid (3-{6-methoxy-7-[3-(4-methyl-piperazin-1-yl)-propoxy]-quinolin-4-yloxy}-phenyl)-amide]	4.30 to 4.90	4.60 to 5.00
4.30 to 4.90	165 to 166	COc1cc2c(Oc3ccc(NS(=O)(=O)c4ccn(C)n4)cc3F)ccnc2cc1OCCCN1CCC(C)CC1 [Example 164, 1-Methyl-1H-pyrazole-3-sulfonic acid (3-fluoro-4-{6-methoxy-7-[3-(4-methyl-piperidin-1-yl)-propoxy]-quinolin-4-yloxy}-phenyl)-amide]	≥ 4.90	4.60 to 5.00
4.30 to 4.90	157 to 159	COc1cc2c(Oc3ccc(NS(=O)(=O)c4ccn(C)n4)cc3F)ccnc2cc1OCCCN1CCN(C)CC1 [Example 166, 1-Methyl-1H-pyrazole-3-sulfonic acid (3-fluoro-4-{6-methoxy-7-[3-(4-methyl-piperazin-1-yl)-propoxy]-quinolin-4-yloxy}-phenyl)-amide]	≥ 4.90	4.60 to 5.00
4.30 to 4.90	162 to 163	COc1cc2c(Oc3cccc(NS(=O)(=O)c4ccc(Cl)s4)c3)ccnc2cc1OCCCN1CCN(C)CC1 [Example 130, 5-Chloro-thiophene-2-sulfonic acid (3-{6-methoxy-7-[3-(4-methyl-piperazin-1-yl)-propoxy]-quinolin-4-yloxy}-phenyl)-amide]	≥ 4.90	≥ 5.00
≥ 4.90	164 to 166	COc1cc2c(Oc3cccc(NS(=O)(=O)c4ccccc4OC(F)(F)F)c3)ccnc2cc1OCCCN1CCN(C)CC1 [Example 126, N-(3-{6-Methoxy-7-[3-(4-methyl-piperazin-1-yl)-propoxy]-quinolin-4-yloxy}-phenyl)-2-trifluoromethoxy-benzenesulfonamide]	≥ 4.90	4.60 to 5.00
4.30 to 4.90	118 to 120	COc1cc2c(Oc3cccc(NS(=O)(=O)c4c[nH]c(C)n4)c3)ccnc2cc1OCCCN1CCN(C)CC1 [Example 141, 2-Methyl-1H-imidazole-4-sulfonic acid (3-{6-methoxy-7-[3-(4-methyl-piperazin-1-yl)-propoxy]-quinolin-4-yloxy}-phenyl)-amide]	4.30 to 4.90	4.60 to 5.00
≥ 4.90	85 to 87	COc1cc2c(Oc3cccc(NS(=O)(=O)/C=C/c4ccccc4)c3)ccnc2cc1OCCCN1CCN(C)CC1 [Example 143, 2-Phenyl-ethenesulfonic acid (3-{6-methoxy-7-[3-(4-methyl-piperazin-1-yl)-propoxy]-quinolin-4-yloxy}-phenyl)-amide]	≥ 4.90	≥ 5.00

Reference: patent US9169241B2, “Quinolinyloxyphenylsulfonamides” (Max-Planck-Gesellschaft Zur Forderung der Wissenschaften …, priority 2009, dated 2015)
